Results: patent US20240033502A1 (Wesbot, LLC, priority 2022, published 2024)
Several values for one entry are separate records, joined by “and”; a condition that tells them apart may be missing. Equal entries are not always repeated. Where two headings read alike, the source gives them in different places.

Assays:
[1] = system: Escherichia coli (strain BW25113); conditions: paper filter disks moistened with 0.75 M generated hydrogen peroxide in PBS on seeded LB agar, 37° C. for 18-24 hr, qualitative
Method: A plate with Lysogeny Broth (LB) Agar media was evenly seeded with a 1 Optical Density (OD) culture of Escherichia coli (strain BW25113). […] Plates were left to dry and incubated at 37° C. for 18-24 hr.

E. coli [2] = conditions: 0.5 mL of 0.05 OD culture, 5 mA electric current for 30 min; triplicate experiments
Method: To test this an E. coli culture was grown from a single colony in LB media at 37° C., until reaching 0.05 OD. Next, 0.5 mL of this culture was treated with 5 mA of electric current for 30 min. The counting of CFU/ml before and after applying the current for 30 min was done by plating 50 and 100 μL of 1:10,000 dilution respectively on LB agar plates and incubating at 37° C. for 18-24 hrs.

E. coli [3] = assay: Killing (antimicrobial) test, CFU count; format: cell-based, Escherichia coli
Method: The initial colony forming units per mL (CFU/mL) were counted by plating 50 uL of a dilution 1:10,000 of the culture on LB agar plates. Next, 3 ml of the bacterial culture were treated with 1 ml of separately generated H2O2 0.75 M such that the final concentration of H2O2 in the bacteria containing plates reached around 0.25 M. To count the bacterial survival after treatment, 100 μl of 1:10,000 dilution were plated on LB agar plates and incubated at 37° C. for 18-24 hrs. The percentage of killed bacteria was calculated using the initial CFU as 100% and subtracting the recovered CFU after treatment.

OO [hydrogen peroxide]
zone of growth inhibition [1]: disinfection in region of clearance
zone of growth inhibition ([1]; listed as H2O2): zone of growth inhibition
% Killed (%) (E. coli [2]): 99.6%
Peroxide Treated (CFU x 10^6) (E. coli [3]; 3 ml culture (0.05 OD) + 1 ml separately generated H2O2 0.75 M, final around 0.25 M, triplicate experiments): 1.2 CFU x 10^6 and 0.7 CFU x 10^6
% Killed (%) (E. coli [3]; final H2O2 around 0.25 M, initial CFU as 100%, triplicate experiments): 96.1% and 96% and 94.2%
rate at which bacteria population is killed (E. coli [3]; from triplicate antimicrobial test, Table 4): 2.5 % CFU/μmol H2O2
